Publication PMC12645583 (British journal of haematology, 2025)

Key:
[1] = molecular target: BTK (Homo sapiens, UniProt Q06187); experiment: SelectScreen Z-Lyte enzymatic kinase assay at ATP Km app; format: biochemical
[2] = molecular target: HCK (Homo sapiens, UniProt P08631); experiment: as above; format: biochemical
[3] = molecular target: IRAK1 (Homo sapiens, UniProt P51617); experiment: KINOMEscan kinase profiling, % inhibition at […]; format: binding
IRAK1, sequence (P51617 whole entry): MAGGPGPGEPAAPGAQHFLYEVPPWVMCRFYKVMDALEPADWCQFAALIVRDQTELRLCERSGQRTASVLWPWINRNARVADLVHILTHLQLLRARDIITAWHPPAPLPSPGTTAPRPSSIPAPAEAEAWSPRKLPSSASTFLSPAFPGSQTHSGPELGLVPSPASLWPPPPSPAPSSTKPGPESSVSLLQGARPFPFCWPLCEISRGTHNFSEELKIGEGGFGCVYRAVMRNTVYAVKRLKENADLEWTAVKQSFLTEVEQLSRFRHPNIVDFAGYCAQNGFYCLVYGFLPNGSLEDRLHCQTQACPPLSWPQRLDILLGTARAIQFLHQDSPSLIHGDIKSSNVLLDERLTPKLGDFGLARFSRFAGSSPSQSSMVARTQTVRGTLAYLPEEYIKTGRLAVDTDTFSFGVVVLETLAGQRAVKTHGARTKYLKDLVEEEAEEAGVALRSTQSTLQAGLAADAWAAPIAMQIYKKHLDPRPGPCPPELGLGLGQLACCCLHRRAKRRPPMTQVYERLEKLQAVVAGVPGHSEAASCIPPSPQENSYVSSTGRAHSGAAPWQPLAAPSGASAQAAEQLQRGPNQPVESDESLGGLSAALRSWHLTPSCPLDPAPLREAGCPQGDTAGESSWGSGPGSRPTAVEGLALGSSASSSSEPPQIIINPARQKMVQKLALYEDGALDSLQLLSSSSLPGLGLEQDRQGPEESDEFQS

HCK, sequence (P08631 2-526): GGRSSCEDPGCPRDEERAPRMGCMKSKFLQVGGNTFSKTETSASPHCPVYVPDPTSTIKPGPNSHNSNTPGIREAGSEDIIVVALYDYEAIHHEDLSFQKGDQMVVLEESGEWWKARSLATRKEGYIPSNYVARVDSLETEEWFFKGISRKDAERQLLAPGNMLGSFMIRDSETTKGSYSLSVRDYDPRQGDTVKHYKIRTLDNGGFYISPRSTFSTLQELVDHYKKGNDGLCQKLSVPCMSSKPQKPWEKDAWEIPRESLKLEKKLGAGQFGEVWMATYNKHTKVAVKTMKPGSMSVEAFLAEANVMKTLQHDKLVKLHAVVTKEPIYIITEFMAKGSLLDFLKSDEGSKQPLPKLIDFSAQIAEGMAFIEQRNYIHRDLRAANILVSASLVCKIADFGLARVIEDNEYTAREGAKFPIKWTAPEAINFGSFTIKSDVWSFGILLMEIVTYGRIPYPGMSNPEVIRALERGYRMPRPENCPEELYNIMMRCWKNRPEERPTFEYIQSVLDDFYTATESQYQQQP
BTK, sequence (Q06187 2-659): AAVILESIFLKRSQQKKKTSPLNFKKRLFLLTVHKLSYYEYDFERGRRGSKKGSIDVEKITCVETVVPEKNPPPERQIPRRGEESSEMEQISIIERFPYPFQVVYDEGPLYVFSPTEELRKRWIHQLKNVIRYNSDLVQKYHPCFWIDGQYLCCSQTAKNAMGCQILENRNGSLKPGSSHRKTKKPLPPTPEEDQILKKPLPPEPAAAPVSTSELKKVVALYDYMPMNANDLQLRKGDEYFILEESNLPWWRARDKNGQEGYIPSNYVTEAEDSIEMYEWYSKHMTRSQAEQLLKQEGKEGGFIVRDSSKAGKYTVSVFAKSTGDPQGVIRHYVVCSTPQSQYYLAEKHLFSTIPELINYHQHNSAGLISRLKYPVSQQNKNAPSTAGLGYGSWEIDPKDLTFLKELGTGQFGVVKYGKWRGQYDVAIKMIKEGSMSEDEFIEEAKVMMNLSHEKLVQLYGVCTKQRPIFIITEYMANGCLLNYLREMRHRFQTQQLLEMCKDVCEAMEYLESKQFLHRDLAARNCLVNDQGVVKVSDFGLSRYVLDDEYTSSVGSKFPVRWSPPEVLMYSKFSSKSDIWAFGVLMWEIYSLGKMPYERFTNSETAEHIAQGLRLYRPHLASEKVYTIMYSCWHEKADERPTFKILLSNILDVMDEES

C1=C/COCc2cc(ccc2OCCN2CCCC2)Nc2nccc(n2)-c2cccc(c2)COC/1 [pacritinib]
IC50 [1]: 367 nM
IC50 [2]: 528 nM
% [3]: 99.5%
